For orientation: melting point means the temperature of the solid-liquid transition. In turn, `Cc1ccc(C)c2c1cc(C(=O)Nc1cnc3c(c1)nc1n3CCC1)n2Cc1cccc(F)c1` returned a melting point of 286 to 288 °C. Turning to `CC(C)c1ccc2cc(C(=O)Nc3cnc4c(c3)nc3n4CCC3)n(Cc3cccc(F)c3)c2c1` [Compound 17, N-(7,8-Dihydro-6H-pyrrolo[2′,1′:2,3]imidazo[4,5-b]pyridin-3-yl)-6-isopropyl-1-(3-fluorobenzyl)-1H-indole-2-carboxamide], the melting point is 275 to 278 °C. `O=C(Nc1cnc2c(c1)nc1n2CCCC1)c1cc2cc(C(F)(F)F)ccc2n1Cc1cccc(F)c1` [Compound 27, N-(6,7,8,9-Tetrahydroimidazo[1,2-a:5,4-b′]dipyridin-3-yl)-5-trifluoromethyl-1-(3-fluorobenzyl)-1H-indole-2-carboxamide] displayed a melting point of 262 to 263 °C.

On to `Cc1cccc2c1cc(C(=O)Nc1cnc3c(c1)nc1n3CCC1)n2Cc1cccc(F)c1`, for which the melting point fell in the range of 303 to 304 °C. `O=C(Nc1cnc2c(c1)nc1n2CCC1c1ccccc1)c1cc2cc(C(F)(F)F)ccc2n1Cc1cccc(F)c1` (racemic) [Compound 30, N-(6-Phenyl-7,8-dihydro-6H-pyrrolo[2′,1′:2,3]imidazo[4,5-b]pyridin-3-yl)-5-trifluoromethyl-1-(3-fluorobenzyl)-1H-indole-2-carboxamide] displayed a melting point of 129 to 130 °C. Take `Cc1ccc2c(c1)cc(C(=O)Nc1cnc3c(c1)nc1n3CCC1)n2Cc1cccc(F)c1`: the melting point lay within 237 to 238 °C. `CS(=O)(=O)c1ccc2c(c1)cc(C(=O)Nc1cnc3c(c1)nc1n3CCC1)n2Cc1cccc(F)c1` [Compound 21, N-(7,8-Dihydro-6H-pyrrolo[2′,1′:2,3]imidazo[4,5-b]pyridin-3-yl)-5-methylsulfonyl-1-(3-fluorobenzyl)-1H-indole-2-carboxamide] gave a melting point of 275 to 277 °C. `CC(=O)OC1CCn2c1nc1cc(NC(=O)c3cc4cc(F)ccc4n3Cc3cccc(F)c3)cnc12` (racemic) [Compound 2, N-(6-Acetoxy-7,8-dihydro-6H-pyrrolo[2′,1′:2,3]imidazo[4,5-b]pyridin-3-yl)-5-fluoro-1-(3-fluorobenzyl)-1H-indole-2-carboxamide] yielded a melting point of 139 to 141 °C.

With `O=C(Nc1cnc2c(c1)nc1n2CCC1)c1cc2cc(Cl)ccc2n1Cc1cccc(F)c1`, the melting point was 263 to 264 °C.

`O=C(Nc1cnc2c(c1)nc1n2CCC1)c1cc2cc(C(F)(F)F)ccc2n1Cc1cccc(F)c1` [Compound 8, N-(7,8-Dihydro-6H-pyrrolo[2′,1′:2,3]imidazo[4,5-b]pyridin-3-yl)-5-trifluoromethyl-1-(3-fluorobenzyl)-1H-indole-2-carboxamide] showed a melting point of 223 to 225 °C. In the case of `CC1(C)CCn2c1nc1cc(NC(=O)c3cc4cc(C(F)(F)F)ccc4n3Cc3cccc(F)c3)cnc12` [Compound 31, N-(6,6-Dimethyl-7,8-dihydro-6H-pyrrolo[2′,1′:2,3]imidazo[4,5-b]pyridin-3-yl)-5-trifluoromethyl-1-(3-fluorobenzyl)-1H-indole-2-carboxamide], the melting point fell in the range of 212 to 213 °C. The compound `O=C(Nc1cnc2c(c1)nc1n2CCC1)c1cc2cc(C(F)(F)F)cnc2n1Cc1cccc(F)c1` [Compound 24, N-(7,8-Dihydro-6H-pyrrolo[2′,1′:2,3]imidazo[4,5-b]pyridin-3-yl)-5-trifluoromethyl-1-(3-fluorobenzyl)-1H-pyrrolo[2,3-b]pyridine-2-carboxamide] registered a melting point of 247 to 249 °C. Next, `O=C(Nc1cnc2c(c1)nc1n2CCC1)c1cc2ccccc2n1Cc1cccc(F)c1`: 243 to 244 °C. Compound `O=C(Nc1cnc2c(c1)nc1n2CCC1O)c1cc2ccc(C(F)(F)F)cc2n1Cc1cccc(F)c1` (single isomer, unassigned; (-)) [Compound 28, (−)-N-(6-Hydroxy-7,8-dihydro-6H-pyrrolo[2′,1′:2,3]imidazo[4,5-b]pyridin-3-yl)-6-trifluoromethyl-1-(3-fluorobenzyl)-1H-indole-2-carboxamide] came in with a melting point of 269 to 271 °C. For `O=C(Nc1cnc2c(c1)nc1n2CCC1)c1cc2ccc(C(F)(F)F)cc2n1Cc1cccc(F)c1` [Compound 7, N-(7,8-Dihydro-6H-pyrrolo[2′,1′:2,3]imidazo[4,5-b]pyridin-3-yl)-6-trifluoromethyl-1-(3-fluorobenzyl)-1H-indole-2-carboxamide], the melting point was 261 to 262 °C.

As to `O=C(Nc1cnc2c(c1)nc1n2CCC1)c1cc2ccc(Cl)cc2n1Cc1cccc(F)c1`, the melting point was 252 to 253 °C.

In the case of `CSc1ccc2cc(C(=O)Nc3cnc4c(c3)nc3n4CCC3)n(Cc3cccc(F)c3)c2c1` [Compound 22, N-(7,8-Dihydro-6H-pyrrolo[2′,1′:2,3]imidazo[4,5-b]pyridin-3-yl)-6-methylthio-1-(3-fluorobenzyl)-1H-indole-2-carboxamide], the melting point fell in the range of 222 to 223 °C. For `O=C(Nc1cnc2c(c1)nc1n2CCC1)c1cc2cc(F)cnc2n1Cc1cccc(F)c1`, the melting point is 242 to 243 °C. Under `O=C(Nc1cnc2c(c1)nc1n2CCC1O)c1cc2cc(F)ccc2n1Cc1cccc(F)c1` (racemic) stands 288 to 290 °C; under `CC(C)(C)c1ccc2c(c1)cc(C(=O)Nc1cnc3c(c1)nc1n3CCC1)n2Cc1cccc(F)c1` [Compound 18, N-(7,8-Dihydro-6H-pyrrolo[2′,1′:2,3]imidazo[4,5-b]pyridin-3-yl)-5-tertbutyl-1-(3-fluorobenzyl)-1H-indole-2-carboxamide], 234 to 236 °C. With `CC(C)(C)c1ccc2cc(C(=O)Nc3cnc4c(c3)nc3n4CCC3)n(Cc3cccc(F)c3)c2c1` [Compound 19, N-(7,8-Dihydro-6H-pyrrolo[2′,1′:2,3]imidazo[4,5-b]pyridin-3-yl)-6-tertbutyl-1-(3-fluorobenzyl)-1H-indole-2-carboxamide], the melting point lay within 244 to 245 °C. For the compound `CN(C)C1CCn2c1nc1cc(NC(=O)c3cc4cc(C(F)(F)F)ccc4n3Cc3cccc(F)c3)cnc12` (single isomer, unassigned; (-)) [Compound 33, (−)-N-(6-Dimethylamino-7,8-dihydro-6H-pyrrolo[2′,1′:2,3]imidazo[4,5-b]pyridin-3-yl)-5-trifluoromethyl-1-(3-fluorobenzyl)-1H-indole-2-carboxamide], the melting point fell in the range of 203 to 205 °C.

As for `O=C(Nc1cnc2c(c1)nc1n2CCC1)c1cc2cccc(F)c2n1Cc1cccc(F)c1`, the melting point is 237 to 239 °C. Under `Cc1ccc2cc(C(=O)Nc3cnc4c(c3)nc3n4CCC3)n(Cc3cccc(F)c3)c2c1` stands 182 to 183 °C; under `O=C(Nc1cnc2c(c1)nc1n2CCC1)c1cc2c(F)cccc2n1Cc1cccc(F)c1`, 265 to 266 °C; under `O=C(Nc1cnc2c(c1)nc1n2CCC1O)c1cc2cc(C(F)(F)F)ccc2n1Cc1cccc(F)c1` (stereo not drawn) [Compound 26, N-(6-Hydroxy-7,8-dihydro-6H-pyrrolo[2′,1′:2,3]imidazo[4,5-b]pyridin-3-yl)-5-trifluoromethyl-1-(3-fluorobenzyl)-1H-indole-2-carboxamide], 267 to 268 °C. `NC1CCn2c1nc1cc(NC(=O)c3cc4cc(F)ccc4n3Cc3cccc(F)c3)cnc12` (racemic) [Compound 34, N-(6-Amino-7,8-dihydro-6H-pyrrolo[2′,1′:2,3]imidazo[4,5-b]pyridin-3-yl)-5-fluoro-1-(3-fluorobenzyl)-1H-indole-2-carboxamide] yielded a melting point of 218 to 220 °C. For `CC(=O)NC1CCn2c1nc1cc(NC(=O)c3cc4cc(F)ccc4n3Cc3cccc(F)c3)cnc12` (racemic) [Compound 35, N-(6-Acetylamino-7,8-dihydro-6H-pyrrolo[2′,1′:2,3]imidazo[4,5-b]pyridin-3-yl)-5-fluoro-1-(3-fluorobenzyl)-1H-indole-2-carboxamide], the melting point was 282 to 283 °C. In turn, `CCc1ccc2cc(C(=O)Nc3cnc4c(c3)nc3n4CCC3)n(Cc3cccc(F)c3)c2c1` came in with a melting point of 224 to 226 °C.

Regarding `O=C(Nc1cnc2c(c1)nc1n2CCC1)c1cc2ccc(F)cc2n1Cc1cccc(F)c1`, the melting point was in the range of 235 to 236 °C.

For `O=C(Nc1cnc2c(c1)nc1n2CCC1)c1cc2c(Cl)cccc2n1Cc1cccc(F)c1`, the melting point was 302 to 303 °C. For the compound `O=C(Nc1cnc2c(c1)nc1n2CCC1O)c1cc2cc(C(F)(F)F)cnc2n1Cc1cccc(F)c1` (single isomer, unassigned; (-)) [Compound 36, (−)-N-(6-Hydroxy-7,8-dihydro-6H-pyrrolo[2′,1′:2,3]imidazo[4,5-b]pyridin-3-yl)-5-trifluoromethyl-1-(3-fluorobenzyl)-1H-pyrrolo[2,3-b]pyridine-2-carboxamide], the melting point lay in the range of 279 to 280 °C. For the compound `O=C(Nc1cnc2c(c1)nc1n2CCC1)c1cc2ccc(C(F)(F)F)nc2n1Cc1cccc(F)c1` [Compound 23, N-(7,8-Dihydro-6H-pyrrolo[2′,1′:2,3]imidazo[4,5-b]pyridin-3-yl)-6-trifluoromethyl-1-(3-fluorobenzyl)-1H-pyrrolo[2,3-b]pyridine-2-carboxamide], the melting point lay in the range of 272 to 273 °C.

For the origin of these results see patent US8420817B2, “Tricyclic N-heteroaryl-carboxamide derivatives, preparation and therapeutic use thereof” (Sanofi, priority 2007, dated 2013).
